The values that follow come from patent publication US12484579B2, “Agrochemical composition and methods of preparing and using the same” (priority 2018, dated 2025).

The nature of the series: Solubility of Mesotrione in solvents. The format is physicochemical. From the text: Mesotrione has been introduced in both Rhodiasolv® Li-Tec 2v and Rhodiasolv® Polarclean. Mesotrione is not soluble in Rhodiasolv® Li-Tec 2v and is soluble in (for instance at concentration of 30 g/L) Rhodiasolv® Polarclean.

The structures appear in SMILES notation.

As for `CS(=O)(=O)c1ccc(C(=O)C2C(=O)CCCC2=O)c([N+](=O)[O-])c1` [Mesotrione, 2-(4-methylsulfonyl-2-nitrobenzoyl)-cyclohexane-1,3-dione], for the setting “solvent Rhodiasolv® Li-Tec 2v”, the “Solubility in Rhodiasolv® Li-Tec 2v” value is on record as “not soluble”. In addition, the “Solubility in Rhodiasolv® Polarclean” value (solvent Rhodiasolv® Polarclean, for instance at concentration of 30 g/L) is reported as “soluble”.
